Measured values published in paper PMC7116141 (Journal of the American Chemical Society, 2006).

Biological target: T1, human OGA (hOGA, O-GlcNAcase) (Homo sapiens, UniProt O60502)
T1 sequence (O60502 1-916): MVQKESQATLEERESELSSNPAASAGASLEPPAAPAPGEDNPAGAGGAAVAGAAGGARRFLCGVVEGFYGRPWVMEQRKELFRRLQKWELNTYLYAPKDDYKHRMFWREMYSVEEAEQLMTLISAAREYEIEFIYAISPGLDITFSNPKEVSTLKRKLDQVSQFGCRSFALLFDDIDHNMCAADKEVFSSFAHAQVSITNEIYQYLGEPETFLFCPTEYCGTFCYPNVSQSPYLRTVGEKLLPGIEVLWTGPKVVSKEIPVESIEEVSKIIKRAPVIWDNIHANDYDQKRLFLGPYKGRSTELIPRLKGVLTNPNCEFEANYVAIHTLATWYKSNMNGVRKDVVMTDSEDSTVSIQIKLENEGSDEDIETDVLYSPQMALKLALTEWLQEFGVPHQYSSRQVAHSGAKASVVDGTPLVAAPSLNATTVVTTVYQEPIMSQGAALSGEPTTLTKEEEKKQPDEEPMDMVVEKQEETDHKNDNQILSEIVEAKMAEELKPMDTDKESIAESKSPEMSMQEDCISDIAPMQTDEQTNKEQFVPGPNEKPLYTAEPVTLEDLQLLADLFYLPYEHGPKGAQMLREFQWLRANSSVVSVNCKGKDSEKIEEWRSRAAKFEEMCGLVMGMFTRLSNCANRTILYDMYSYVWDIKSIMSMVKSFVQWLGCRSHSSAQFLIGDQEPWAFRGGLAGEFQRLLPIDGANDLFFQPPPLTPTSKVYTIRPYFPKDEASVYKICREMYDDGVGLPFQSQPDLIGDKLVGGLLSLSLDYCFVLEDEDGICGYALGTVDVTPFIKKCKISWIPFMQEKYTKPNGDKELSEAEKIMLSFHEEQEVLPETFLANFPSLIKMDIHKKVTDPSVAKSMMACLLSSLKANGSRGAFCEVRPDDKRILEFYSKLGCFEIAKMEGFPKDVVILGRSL
Assay: anti-O-GlcNAc immunoblot of treated HEK […] cells
Assay type: cell-based

SMILES: CC(C)C(=O)N[C@H]1c2nc(CCc3ccccc3)cn2[C@H](CO)[C@@H](O)[C@@H]1O [compound 1, GlcNAcstatin]
- anti-O-GlcNAc immunoblot of treated HEK 293 cells (qualitative): is active against human OGA (hOGA) in human cell lines
